Assays:
[1] = molecular target: mushroom tyrosinase; assay: Tyrosinase enzyme inhibition assay; type: biochemical; details: pure compounds; mean ± S.D., triplicate independent experiments
Method: Maplifa was prepared by new methods developed in the laboratory. Briefly, leaves of red maple were dried and macerated in aqueous ethanol to obtain the crude extract which was then further purified on a resin column to remove chlorophyll and other plant pigments.

[2] = test system: TRP-2; assay: Protein expression by Western blot in B16F10 cells; type: cell-based, murine; details: 10 μM, 72 hours
Method: Furthermore, the regulation of ginnalins on the protein expressions of melanogenesis related enzymes in B16F10 cells were evaluated by using Western blot. Expressions of melanin biosynthesis-related proteins, including MITF, TYR, TRP-1 and TRP-2 expression in B16F10 cells were measured by western blot. After incubation with ginnalins for 72 h, proteins from cells were resolved by SDS-PAGE and then transferred to polyvinylidene fluoride membrane. The membrane was blocked with 5% nonfat dry milk in Tris-buffered saline with Tween followed by incubation with primary antibodies overnight. Bands were visualized on X-ray film using an ECL detection kit (Amersham Biosciences, Piscataway, N.J.). A list of antibody, source, and dilution is listed in Supplementary material.

[3] = test system: B16F10 cells; assay: Melanin content in B16F10 cells; type: cell-based, murine; details: for melanin content compared to control group: 72 h
Method: The contents of biosynthesized melanin in melanoma B16F10 cells that treated with ginnalinginnalins A-C at serial concentrations were evaluated by comparing with the control group. The melanin content was determined using a modification of the method described by Liang and Ho. Briefly, B16F10 cells (5×10^4 cells/well) were first seeded in 24-well plates for 24 h and then medium was changed with new DMEM medium containing test samples of various concentrations. After 72 h incubation, the cells were harvested through trypsinization and washed with phosphate-buffered saline (PBS) twice. Then cells were lyzed with 1 N NaOH containing 10% DMSO and heated at 80° C. for 1 h. After samples cooled down to room temperature, the amount of melanin content was spectrophotometrically measured at 400 nm.

[4] = test system: TRP-2; assay: mRNA expression by real-time PCR in B16F10 cells; type: cell-based, murine; details: 10 μM, 48 h and 72 h
Method: (§1) Melanin biosynthesis involves multi-step pathways. In order to determine the molecular mechanisms of inhibitory effects of ginnalins on melanin synthesis, expression levels of melanogenesis related genes, including MITF, TYR, TRP-1 and TRP-2, in B16F10 cells were analyzed by using RT-PCR. The B16F10 cells were planted in 6-well plates at a density of 2.0×10^5 cells/well. After being incubated for 24 h, cells were treated with 2 or 10 μM of ginnalins for 48 or 72 h. Total RNA was isolated from cells using TRIzol reagent (Invitrogen) according to the manufacturer's instructions. One microgram of total RNA was converted to single-stranded cDNA using oligo(dT)18 primers, and mRNA levels were quantified by quantitative real-time PCR using a Roche LightCycler detection system (Roche Applied Science, Mannheim, Germany). Samples were run by using SYBR Green and compared with levels of b2m rRNA as a reference housekeeping gene. Quantitative real-time PCR conditions were optimized for each gene using appropriate forward and reverse primers. The primers used are listed in Supplemental material. All oligonucleotides were synthesized by Invitrogen Inc., CA.

[5] = test system: MITF; assay: mRNA expression by real-time PCR in B16F10 cells; type: cell-based, murine; details: 10 μM, 48 h and 72 h
Method: as §1

[6] = test system: TYR; assay: mRNA expression by real-time PCR in B16F10 cells; type: cell-based, murine; details: 10 μM; for TYR mRNA expression: 48 h and 72 h
Method: as §1

[7] = test system: TRP-1; assay: mRNA expression by real-time PCR in B16F10 cells; type: cell-based, murine; details: 10 μM, 48 h and 72 h
Method: as §1

[8] = test system: B16F10 cells; assay: MTS cell viability assay; type: cell-based, murine; details: 72 h; for B16F10 cell viability: vs untreated control
Method: To further investigate the anti-melanogenic activities of ginnalinginnalins A-C, present in the Maplifa extract, cellular based assay were employed to measure the melanin content on murine melanoma B16F10 cells. In order to determine the non-toxic concentrations of ginnalinginnalins for cellular assays, cell viability on B16F10 cells were first evaluated by using MTS assay. The MTS assay was carried out as described previously with modifications. At the end of either 24, 48 or 72 h of treatment with test samples (in the concentration range of 1-100 μM for purified gallotannins and 6.25-200 μg/mL for Maplifa extract), 20 μL of the MTS reagent, in combination with the electron coupling agent, phenazine menthosulfate, were added to the wells and cells were incubated at 37° C. in a humidified incubator for 3 h. Absorbance at 490 nm was monitored with a spectrophotometer (SpectraMax M2, Molecular Devices Corp., operated by SoftmaxPro v.4.6 software, CA, USA) to obtain the number of cells relative to control populations. […] Data was presented as mean values±S.D. and were obtained from three separate experiments. Two-tailed unpaired student's t-test was used for statistical analysis of the data using the Office Excel 2010 software. A p value <0.05 was considered significant.
Murine melanoma B16F10 was purchased from the American Type Culture Collection (Rockville, Md.). Cells were cultured in Dulbecco's Modified Eagle Medium (DMEM) medium (Wilkem Scientific, R.I.) that was supplemented with 10% v/v fetal bovine serum, 1% v/v nonessential amino acids and 1% v/v antibiotic solution at 37° C. in 5% CO2. Samples were dissolved at a concentration of 50 mg/mL in dimethylsulfoxide (DMSO) as stock solution and then diluted to the desired final concentrations with growth medium. […]
Melanoma B16F10 cells were treated with serial concentrations of Maplifa (6.25, 12.5, 25, 50, 100, and 200 μg/mL) for 48 and 72 h. In addition, various concentrations (0, 5, 10, 25, and 50 μM) of ginnalinginnalins A-C for 72 h and the cell viabilities were determined by comparing with the untreated control group. […]

SMILES: O=C(O[C@H]1CO[C@H](CO)[C@@H](O)[C@@H]1O)c1cc(O)c(O)c(O)c1 [Ginnalin C]
- IC50 [1]: 858 µM
- decrease of TRP-2 protein expression [2]: 69.5%
- anti-melanogenic effects in B16F10 cells [3]: only minor anti-melanogenic effects
- melanin content compared to control group ([3]; 25 μM): 89.7%
- melanin content compared to control group ([3]; 50 μM): 68.8%
- TRP-2 mRNA expression [4]: only slightly decreased
- MITF mRNA expression [5]: significantly down-regulated
- TYR mRNA expression [6]: only slightly decreased
- TRP-1 mRNA expression [7]: did not reduce

SMILES: OC[C@H]1O[C@@H](Oc2ccc(O)cc2)[C@H](O)[C@@H](O)[C@@H]1O [Arbutin, reference compound]
- IC50 [1]: 63 ± 0.3 µM

SMILES: O=C(OC[C@H]1OC[C@H](OC(=O)c2cc(O)c(O)c(O)c2)[C@@H](O)[C@@H]1O)c1cc(O)c(O)c(O)c1 [Ginnalin A]
- IC50 [1]: 182 µM
- decrease of TRP-2 protein expression [2]: 87.9%
- melanin content compared to control group ([3]; 25 μM): 79.1%
- effect on melanin content ([3]; 50 μM): clearly reduced
- melanin content compared to control group ([3]; 50 μM): 56.7%
- TRP-2 mRNA expression [4]: significantly reduced
- MITF mRNA expression [5]: significantly reduced
- TYR mRNA expression [6]: significantly reduced
- TRP-1 mRNA expression [7]: significantly reduced
- B16F10 cell viability ([8]; 25 μM): 87.0%
- B16F10 cell viability ([8]; 50 μM): 89.5%
- toxicity to B16F10 cells ([8]; low concentrations (5 and 10 μM)): non-toxic

SMILES: O=C(OC[C@H]1OC[C@H](O)[C@@H](O)[C@@H]1O)c1cc(O)c(O)c(O)c1 [Ginnalin B]
- IC50 [1]: 1050 µM
- decrease of TRP-2 protein expression [2]: 92.0%
- anti-melanogenic effects in B16F10 cells [3]: only minor anti-melanogenic effects
- melanin content compared to control group ([3]; 25 μM): 90.0%
- melanin content compared to control group ([3]; 50 μM): 90.0%
- TRP-2 mRNA expression [4]: significantly decreased
- MITF mRNA expression [5]: significantly decreased
- decrease of TYR mRNA expression ([6]; 48 hours): 10.0%
- decrease of TYR mRNA expression ([6]; 72 hours): 7.5%
- TRP-1 mRNA expression [7]: significantly decreased
